Data set [1] is filed under the species Mus musculus. As to the kind of experiment: Hypoglycemic activity in db/db mouse assessed as AUC of blood glucose level by oral glucose tolerance test (reference value: 114.8 mmol.min/L). The data set is classed as functional.
A short description of data set [2]: Induction of insulin-sensitizing activity in insulin-resistant mouse 3T3-L1 cells assessed as increase in glucose consumption at 0.1 uM relative to control. The data set is classed as functional.
Data set [3] in a line: Cytotoxicity against mouse 3T3-L1 cells assessed as cell viability at 0.1 uM. It counts as toxicity, cell-based. Particulars: read-out: Activity.
A short description of data set [4]: Induction of insulin-sensitizing activity in insulin-resistant human HepG2 cells assessed as increase in glucose consumption at 0.1 uM relative to control. It counts as functional.
The nature of data set [5]: Induction of insulin-sensitizing activity in insulin-resistant mouse 3T3-L1 cells assessed as glucose consumption at 0.1 uM (reference value: 3.354 +/- 0.342 mM). It counts as functional.
Data set [6] can be described thus: Induction of insulin-sensitizing activity in insulin-resistant human HepG2 cells assessed as glucose consumption at 0.1 uM (reference value: 5.83 +/-0.101 mM). The data set is classed as functional.
A short description of data set [7]: Cytotoxicity against human HepG2 cells assessed as cell viability at 0.1 uM. Particulars: read-out: Activity. It counts as toxicity, cell-based.
Data set [8] addresses T1, Peroxisome proliferator-activated receptor gamma (Homo sapiens) (UniProt P37231).
T1 sequence (whole entry): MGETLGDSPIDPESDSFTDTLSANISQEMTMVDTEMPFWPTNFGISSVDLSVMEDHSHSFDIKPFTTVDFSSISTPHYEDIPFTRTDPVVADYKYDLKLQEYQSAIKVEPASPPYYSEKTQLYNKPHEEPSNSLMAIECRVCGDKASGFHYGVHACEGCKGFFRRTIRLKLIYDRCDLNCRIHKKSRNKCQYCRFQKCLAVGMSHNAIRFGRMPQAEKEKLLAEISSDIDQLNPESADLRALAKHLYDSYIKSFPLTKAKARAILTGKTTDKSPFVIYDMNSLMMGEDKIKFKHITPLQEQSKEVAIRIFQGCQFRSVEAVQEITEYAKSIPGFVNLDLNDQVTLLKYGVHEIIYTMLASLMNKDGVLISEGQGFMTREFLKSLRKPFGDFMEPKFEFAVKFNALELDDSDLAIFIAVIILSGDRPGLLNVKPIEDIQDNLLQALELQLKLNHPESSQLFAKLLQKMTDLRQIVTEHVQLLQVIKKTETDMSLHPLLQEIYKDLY
As to the kind of experiment: Antagonist activity at PPAR-gamma (unknown origin) transfected in human HEK293 cells assessed as decrease in rosiglitazone-induced receptor transactivation at 1 uM by dual-luciferase reporter gene assay relative to control. It counts as cell-based.

Data set [9] concerns the target T1, Peroxisome proliferator-activated receptor gamma (Homo sapiens). As to the kind of experiment: Antagonist activity at PPAR-gamma (unknown origin) transfected in human HEK293 cells assessed as decrease in rosiglitazone-induced receptor transactivation at 10 uM by dual-luciferase reporter gene assay relative to control. The data set is classed as cell-based. A general note: Reporter assays use an easily measured gene product as a stand-in for the process of interest.

The target in data set [10] is T2, Peroxisome proliferator-activated receptor gamma (Homo sapiens, UniProt P37231).
T2 sequence (P37231 whole entry): T1 sequence (whole entry)
As to the kind of experiment: Displacement of Fluormone Pan-PPAR Green from human recombinant GST-tagged PPARgamma LBD (201 to 475 residues) expressed in insect cells incubated for 2 hrs in dark by LantahScreen TR-FRET assay. A general note: In TR-FRET formats the signal depends on donor and acceptor labels being close together.

Data set [11] has as its target T3, Peroxisome proliferator-activated receptor gamma (Mus musculus, UniProt P37238).
T3 sequence (P37238 whole entry): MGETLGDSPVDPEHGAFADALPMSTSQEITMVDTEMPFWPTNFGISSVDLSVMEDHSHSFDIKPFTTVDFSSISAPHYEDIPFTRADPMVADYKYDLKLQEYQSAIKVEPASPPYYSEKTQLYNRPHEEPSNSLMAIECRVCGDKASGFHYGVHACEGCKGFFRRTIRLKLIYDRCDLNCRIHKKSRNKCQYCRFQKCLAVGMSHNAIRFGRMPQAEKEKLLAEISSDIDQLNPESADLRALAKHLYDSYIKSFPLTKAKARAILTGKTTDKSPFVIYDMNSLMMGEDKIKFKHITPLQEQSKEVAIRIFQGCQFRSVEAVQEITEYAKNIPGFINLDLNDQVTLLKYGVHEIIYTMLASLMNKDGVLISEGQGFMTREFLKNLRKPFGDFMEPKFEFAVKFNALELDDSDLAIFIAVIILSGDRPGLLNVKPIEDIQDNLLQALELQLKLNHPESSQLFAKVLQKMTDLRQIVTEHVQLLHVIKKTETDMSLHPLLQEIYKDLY
As to the kind of experiment: Agonist activity at PPAR-gamma in mouse 3T3-L1 cells assessed as increase in adipogenesis by measuring increase in oil red staining at 1 uM by Oil-red O staining based analysis relative to control. The data set is classed as toxicity, cell-based. The note with it: 3t3-l1, 1 µM.

Data set [12] in a line: Induction of insulin-sensitizing activity in insulin-resistant mouse 3T3-L1 cells assessed as increase in glucose consumption at 0.1 uM relative to rosiglitazone. It counts as functional.

Molecules are shown by their SMILES.

Regarding `CCc1ccc(CCOc2ccc(CC3SC(=O)NC3=O)cc2)nc1` (stereo unspecified) [PIOGLITAZONE], the AUC in data set [1] came out at 94.8 mmol·min/L.

Consider `COc1cc(CC(=O)c2cccc(-c3ccc(F)cc3)c2)c(C(=O)O)c(O)c1CC=C(C)C`, for which the Activity was -0.2% in [2], -10.9% in [4], 3.741 mM in data set [5] and 5.195 mM in data set [6]. Further, the viability at 0.1 µM in [3] was under 50%.

For the compound `COc1cc(O)c(C(=O)O)c(CC(=O)c2cccc(-c3cncnc3)c2)c1CC=C(C)C`, the viability at 0.1 µM in data set [7] was under 80%. Moreover, the Activity in data set [2] is given as -11.08%; in data set [4] it was 5.76%; in data set [5], 3.405 mM; in data set [6] it was 6.171 mM. Besides, the inhibition (in general, the share of the control response that was lost under treatment) was determined as 11.5% in [8] and 55% in data set [9] (filed as antagonist).

Regarding `Cc1c(C)n(Cc2ccc(C(C)(C)C(=O)O)cc2)c2ccc(C(=O)N[C@@H](C)c3cccc(C4CC4)c3)cc12`, the IC50 (usually the concentration needed to halve the response being measured) in data set [10] is 108 nM.

As to `COc1cc(O)c(C(=O)O)c(CC(=O)c2cccc(-c3ccccc3Cl)c2)c1CC=C(C)C`, the AUC in data set [1] worked out at 106 mmol·min/L. The Activity in [2] came out at 72.61%; in data set [4] it was 33.27%; in data set [5], 6.471 mM; in [11] it was 7.04%; in data set [6], 7.771 mM. Also, the results for the inhibition in [8] (filed as antagonist) and in data set [9] (filed as antagonist) were 50.2% and 96.2%, respectively. Besides, in [12], the “fold change (FC)” value came to 1.6.

For `COc1cc(CC(=O)c2cccc(-c3ccccc3C(F)(F)F)c2)c(C(=O)O)c(O)c1CC=C(C)C`, the Activity in data set [2] is on record as 15.58%; in data set [4], 43.51%; in data set [5] it was 4.333 mM; in data set [6], 8.368 mM. Also, in [3], the viability at 0.1 µM is under 50%. For the same compound, in data set [9] (filed as antagonist), the inhibition is 40.5%.

Take `COc1cc(CC(=O)c2cccc(-c3cncnc3)c2)c(C(=O)O)c(O)c1CC=C(C)C`: the viability at 0.1 µM in data set [7] is under 80%. In addition, the Activity was 9.11% in data set [2], 10.28% in [4], 4.09 mM in [5] and 6.43 mM in data set [6]. Moreover, the inhibition in [8] stood at 4.6%; in [9], 10.3%.

These data come from ChEMBL document CHEMBL5236599, “Design, synthesis and biological evaluation of cajanonic acid A analogues as potent PPAR γ antagonists” (Bioorg Med Chem Lett, 2023).
